Entries after “also recorded” stand apart in the source; their conditions may differ. Peptide text beside a SMILES is read from it.

The subject of assay [1] is FGF14^V160A:Nav1.6 complex. Briefly: LCA, CLuc-FGF14^V160A. The assay is classed as cell-based, human. To be noted: 50 µM peptide, 12 hr, HEK293, vs DMSO. The text has this: Plasmids used in this study derived from the following clones: human FGF14‐1b isoform (accession number: NM_175929.2) and human Nav1.6 (accession number: NM_014191.3). The CLuc‐FGF14, CD4‐Nav1.6‐NLuc, constructs and the pcDNA3.1 vector (Invitrogen, Carlsbad, CA) were engineered and characterized as previously described (Goetz et al., 2009; Shavkunov et al., 2012,2013,2015; Ali et al., 2016, 2018; Wadsworth et al., 2019). The plasmid pGL3 expressing full length Firefly (Photinus pyralis) luciferase was a gift from Dr. P. Sarkar (Department of Neurology, UTMB). For protein purification studies, cDNAs encoding FGF14‐1b (accession number NP_787125; aa 64–252) or the C‐terminal tail of Nav1.6 (accession number #NP_001171455; aa 1756–1939) were subcloned into suitable pET bacterial expression vectors (pET28a‐FGF14; pET30a‐Nav1.6) with a 6X His‐tag at the N‐terminal site; these plasmids were a gift of Dr. Moosa Mohammadi (NYU, Langone Medical Center). The mutation coding for FGF14^V160A was generated by site‐directed mutagenesis and PCR using FGF14‐1b as a template described previously (Ali et al., 2016). […]
(§1) Twenty‐four hours after transfection, HEK293 cells were replated from the 24‐well plate using a 0.04% Trypsin:EDTA mixture dissolved in PBS. […] The bioluminescence reaction was initiated by dispensing 100 µl of D‐luciferin substrate (1.5 mg/ml dissolved in PBS) using a Synergy^TM H4 Multi‐Mode Micro plate Reader (Biotech, Winooski, VT). Luminescence readings were initiated after 3 s of mild plate shaking and performed at 2 min intervals for 20 min with integration times of 0.5 s. […]
(§2) To test the hypothesis that FLPK, PLEV and/or EYYV in cells could act as FGF14 inhibitors of the FGF14:Nav1.6 complex assembly, the complex was reconstituted using LCA (Ali et al., 2014, 2016; Hsu et al., 2015, 2017; Shavkunov et al., 2012,2013,2015; Wadsworth et al., 2019). HEK293 cells transfected with constructs expressing CLuc‐FGF14 and CD4‐Nav1.6 C‐tail‐NLuc in which luminescence is detected upon addition of the D‐luciferin substrate as a read‐out of protein binding (Figure 3). […]

For the next assay, the target named is T1, FGF14:Nav1.6 complex (Homo sapiens, UniProt Q92915).
T1 construct: expressed in transfected cells; host or cells: HEK293, transient transfection
T1 sequence (Q92915 1-252 isoform Q92915-2): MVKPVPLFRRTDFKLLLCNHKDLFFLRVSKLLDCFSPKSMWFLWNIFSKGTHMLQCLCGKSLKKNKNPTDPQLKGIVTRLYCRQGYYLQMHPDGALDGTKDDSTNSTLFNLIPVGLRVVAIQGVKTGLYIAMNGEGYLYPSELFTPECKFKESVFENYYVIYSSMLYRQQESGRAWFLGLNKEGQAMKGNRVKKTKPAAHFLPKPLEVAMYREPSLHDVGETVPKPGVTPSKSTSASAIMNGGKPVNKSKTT
Briefly: Split-luciferase complementation assay (LCA), CLuc-FGF14 wild type. The assay is classed as cell-based. To be noted: for effect on FGF14:Nav1.6 complex formation: 50 µM, 12 hr, HEK293, % maximal luminescence vs DMSO, n = 6–10 independent experiments, FLPK, EYYV p < .01, PLEV p < .001.
Excerpt: Plasmids used in this study derived from the following clones: human FGF14‐1b isoform (accession number: NM_175929.2) and human Nav1.6 (accession number: NM_014191.3). The CLuc‐FGF14, CD4‐Nav1.6‐NLuc, constructs and the pcDNA3.1 vector (Invitrogen, Carlsbad, CA) were engineered and characterized as previously described (Goetz et al., 2009; Shavkunov et al., 2012,2013,2015; Ali et al., 2016, 2018; Wadsworth et al., 2019). The plasmid pGL3 expressing full length Firefly (Photinus pyralis) luciferase was a gift from Dr. P. Sarkar (Department of Neurology, UTMB). For protein purification studies, cDNAs encoding FGF14‐1b (accession number NP_787125; aa 64–252) or the C‐terminal tail of Nav1.6 (accession number #NP_001171455; aa 1756–1939) were subcloned into suitable pET bacterial expression vectors (pET28a‐FGF14; pET30a‐Nav1.6) with a 6X His‐tag at the N‐terminal site; these plasmids were a gift of Dr. Moosa Mohammadi (NYU, Langone Medical Center). The mutation coding for FGF14^V160A was generated by site‐directed mutagenesis and PCR using FGF14‐1b as a template described previously (Ali et al., 2016). For electrophysiological studies FGF14‐GFP (human) and FGF14‐ΔNT‐GFP (human) were cloned into the GFP plasmid (pQBI‐fC2; Quantum Biotechnology Inc., Montreal, Canada) as previously described.
HEK293 cells were maintained in DMEM and F‐12 (Invitrogen, Carlsbad, CA), supplemented with 0.05% glucose, 0.5 mM pyruvate, 10% fetal bovine serum, 100 units/ml penicillin, and 100 µg/ml streptomycin (Invitrogen), and incubated at 37 °C with 5% CO2. HEK293 cells stably expressing the human Nav1.6 channel (hereafter referred to as HEK‐Nav1.6 cells) were maintained similarly except for the addition of 500 μg/ml G418 (Invitrogen) to maintain stable Nav1.6 expression. Cells were transfected at 80%–90% confluence with equal amount (1 μg each) of plasmid pairs using Lipofectamine 2000 (Invitrogen) according to manufacturer's instructions. HEK‐Nav1.6 cells were washed and replated at very low density prior to electrophysiological recordings (Ali et al., 2016, 2018; Scala et al., 2018; Wadsworth et al., 2019).
as §1, with “PBS. Suspended cells were centrifuged and seeded in white, clear‐bottom 96‐well tissue culture plates (Greiner Bio‐One) in 200 µl of medium.” for “PBS.”
as §2, with “3). In‐cell binding of the reconstituted FGF14:Nav1.6 complex in the presence of vehicle (0.1% DMSO) is represented as summary bar graphs of percent maximal luminescence at 10–15 min of reaction time (Figure 3).” for “3).”

On to `CC(=O)N[C@@H](Cc1ccccc1)C(=O)N[C@@H](CC(C)C)C(=O)N1CCC[C@H]1C(=O)N[C@@H](CCCCN)C(N)=O` [FLPK] (Ac-FLPK-NH2), for which the “effect on FGF14^V160A:Nav1.6 complex formation” value in assay [1] is “prevented the effect of FLPK and EYYV; also recorded: abolished”. Besides, the “effect on FGF14:Nav1.6 complex formation” value on FGF14:Nav1.6 complex is listed as “significant reduction of the FGF14:Nav1.6 complex formation; also recorded: weak inhibition”. Moreover, the IC50 on FGF14:Nav1.6 complex (HEK293 cells, FLPK 1, 10, 25, 50, 75, 100, 150, 250 µM, luminescence normalized to DMSO, apparent IC50, read-out: IC50, inhibition of FGF14:Nav1.6 complex formation) is 58 µM. Besides, the “efficacy in reducing FGF14:Nav1.6 complex formation” value on FGF14:Nav1.6 complex (dose-response (Figure 3f), compared to control conditions) is given as “above 50%”.
On to “EYYV [tetrapeptide previously designed from FGF14:FGF14 dimer interface; docked with N-terminal acetylation and C-terminal amidation]”, for which the “effect on FGF14^V160A:Nav1.6 complex formation” value in assay [1] is “prevented the effect of FLPK and EYYV; also recorded: abolished”. The “effect on FGF14:Nav1.6 complex formation” value at FGF14:Nav1.6 complex is reported as “significant reduction of the FGF14:Nav1.6 complex formation”.
For “PLEV [tetrapeptide previously designed from FGF14:FGF14 dimer interface; docked with N-terminal acetylation and C-terminal amidation]”, the “effect on FGF14^V160A:Nav1.6 complex formation” value in assay [1] is “not PLEV”. Further, on FGF14:Nav1.6 complex, the “effect on FGF14:Nav1.6 complex formation” value is “significant reduction of the FGF14:Nav1.6 complex formation”.

As usually defined, the IC50 is the concentration needed to halve the response being measured.
